Values quoted from earlier work in patent US10213524B2, “Coating comprising strontium for body implants” (ELOS MEDTECH PINOL A/S, priority 2012, dated 2019).

Tested on: mice
Conditions: intravenous injection

CC(=O)[O-].CC(=O)[O-].[Sr+2] [strontium acetate]
toxic concentration (can cause mortality): ~40 mg/kg Sr
